In US8742068B2, “Treatment and prevention of inflammatory diseases and autoimmune diseases” (Universiteit Utrecht Holding B.V., priority 2007, dated 2014):

Assays:
DSS colitis [1] = assay: DSS colitis, peroral treatment (Prague study, 2nd part, Example 4); assay type: in vivo, BALB/c mice
Experimental: Fifteen conventional female Balb/c female mice (7 to 9 weeks old) were randomly separated in […] (five mice each). To evaluate the efficacy of per oral treatment, the antigens (full length Mycobacterial HSP70 protein) were administered together with 1 mg of Soybean trypsin inhibitor (SBTI, Sigma) dissolved in 50 μl of 0.15 M sodium bicarbonate, by gavage 4 times in one week interval. After one week the mice received 3% dextran sodium sulphate (DSS) in their drinking water continuously for up to 8 days. Colitis was evaluated on day 36 by a clinical activity score, by colon length and histological score.
• treated: 100 μl of sterile PBS/SBTI intragastrically (Control) Group B2 (HSP60+DSS): • treated: HSP60 30 μg/mouse in 100 μl of sterile PBS/SBTI (1:1) intragastrically Group C2 (HSP70+DSS): • treated: HSP70 30 μg/mouse in 100 μl of sterile PBS/SBTI (1:1) intragastrically Results

DSS colitis [2] = assay: DSS colitis (Utrecht study, Example 5); assay type: in vivo, BALB/c mice; conditions: for Colon Length (cm), average: 4 x 30 μg oral gavage, 3% DSS 7 days, n=10
Experimental: This study is performed with female BALB/c mice aged 7 weeks at the start of the experiment. Groups of mice (n=10) were treated 4 times (days 7, 9, 11, 14) with 30 μg HSP70 in 100 μl PBS (Mt hsp70; batch 031205; 2.1 Endotoxin Units/mg) or vehicle (100 μl PBS), administered via oral gavage. 10 minutes prior to gavage animals received 2 mg soybean trypsin inhibitor (SBTI) in 0.15M sodium bicarbonate, pH 8.0. Colitis was induced by administering drinking water supplemented with 3% DSS during 7 days.
Disease onset was followed by determination of body weight and stool consistency, resulting in clinical state as explained in the table below.
At dissection, colon length was recorded
Colons were cut longitudinally and divided into parts to determine: • histology on formalin-fixed paraffin sections • MPO activity in homogenates (indicative for neutrophilic infiltrations) • Ex-vivo cytokine release (TNFα, IL10) from distal colon sample.
Total score is calculated by the adding the score for each parameter and divided by 3.
Distal colon samples were incubated for 24 h and IL10 content in supernatant was measured using a specific ELISA. IL10 release from distal colon sample in healthy BALB/c mice is 450±328 pg/g colon.

[3] = system: proteoglycan induced arthritis; assay: Proteoglycan induced arthritis (PGIA), intranasal pre-treatment; assay type: in vivo, Balb/c mice; conditions: Example 8: 30 μg intranasally on day −7, −5 and −3 before disease induction
Text: The proteoglycan induced arthritis model (PGIA) is a murine model of rheumatoid arthritis and is described to be a T-cell dependent and antibody mediated model. In the model arthritis is induced by two times injection of human proteoglycan (hPG) in a synthetic adjuvant dimethyldioctadecylammonium (DDA), see Hanyecz A. et al., Achievement of a synergistic adjuvant effect on arthritis induction by activation of innate immunity and forcing the immune response toward the Th1 phenotype. Arthritis Rheum. 2004 50(5):1665-76.
Because arthritis is induced by immunization with a synthetic adjuvant, instead of complete Freund's adjuvant (CFA), the role of interfering immune responses, induced by microbial Hsp's present in CFA, can be excluded. Due to cross reactive responses, between the human and the mouse (self) PG, a chronic and relapsing arthritis develops. After disease development, arthritis severity is scored by clinical assessment of thickness, redness and deformation of the joints on a scale of 1-4 per paw.
Ten female Balb/c mice, retired breeders obtained from Charles River, were randomly divided in two groups. To evaluate the effect of intra nasal treatment with Mycobacterial HSP70 (SEQ ID NO: 55) on PGIA 30 μg Hsp70 in 10 μl PBS was administered on day −7, −5 and −3 before disease induction. PGIA was induced by two times i.p. injection with 400 μg hPG and 2 mg DDA in 200 μl PBS. Subsequently developed arthritis scores were assessed by clinical evaluation as described in Example 7.
Fifteen female Balb/c mice, retired breeders obtained from Charles River, were randomly divided in three groups (five mice per group). To evaluate the effect of intranasal treatment with Hsp70-derived peptides “B1” (SEQ ID NO: 1) and a mixture of C1 (SEQ ID NO: 3) and mC1a (SEQ ID NO: 4) (designated herein as “C1mix”) on PGIA 100 μg peptide in 10 μl PBS was administered on day −7, −5 and −3 before disease induction. Ovalbumin peptide 323-339 (pOva) was used as a control peptide. PGIA was induced by two times i.p. injection with 400 μg hPG and 2 mg DDA in 200 μl PBS. Subsequently developed arthritis scores were assessed by clinical evaluation.
Twelve female Balb/c mice, retired breeders obtained from Charles River, were randomly divided in two groups (six mice per group). To evaluate the effect of intra nasal treatment with Hsp70 derived mC1 a on PGIA 100 μg peptide in 10 μl PBS was administered on day −14, −11, −7 and −4 before disease induction. Ovalbumin peptide (pOva) was used as a control peptide. PGIA was induced by two times i.p. injection with 400 μg hPG and 2 mg DDA in 200 μl PBS. Subsequently developed arthritis scores were assessed by clinical evaluation.
Eighteen female Balb/c mice, retired breeders obtained from Charles River, were randomly divided in three groups (six mice per group). To evaluate the effect of intranasal (i.n.) treatment with Hsp70 derived peptides C1 and its mouse homologue mC1a on PGIA 100 μg peptide in 10 μl PBS was administered on day −7, −5 and −3 before disease induction (see FIG. 28). Ovalbumin peptide (pOva) was used as a control peptide. PGIA was induced by two times i.p. injection with 300 μg hPG and 2 mg DDA in 200 μl PBS. Subsequently developed arthritis scores were assessed by clinical evaluation. • Group A: (pOva): Treated with 100 μg pOva in 10 μl PBS intranasally • Group B (C1): Treated with 100 μg C1 in 10 μl PBS intranasally • Group C (mC1a): Treated with 100 μg mC1a in 10 μl PBS intranasally

[4] = 30 μg/mouse intragastrically with SBTI, 4 times before 3% DSS, 5 mice
[5] = Multiple Range Tests, * p < 0.05

HSP70: full length Mycobacterial HSP70 protein (SEQ ID NO: 55)
Histological grade, Average (DSS colitis [1]; [4]): 1.225 | Weight change, Average (DSS colitis [1]; [4]): −0.44 | Histological grade, Difference (contrast PBS minus treatment) (DSS colitis [1]; Multiple Range Tests): 0.35 | Colon length, Difference (contrast PBS minus treatment) (DSS colitis [1]; [5]): *−1.02 | Weight change, Difference (contrast PBS minus treatment) (DSS colitis [1]; [5]): *−4.62 | symptoms of colitis compared to PBS (DSS colitis [1]; p=0.0057, 0.0387 and 0.0831 for colon length, weight loss and clinical state): significantly mitigates the symptoms of colitis | Colon Length (cm), average (DSS colitis [2]): 6.8 cm | Colon Length (cm), average (DSS colitis [2]; listed as HSP70 protein): less decreased | disease severity (clinical score, disease progression) (DSS colitis [2]; pre-treatment 4 x 30 μg oral gavage): decreased disease severity | arthritis development (arthritis score) [3]: can suppress arthritis development
